Assay results reported in patent US20170334899A1, “AMINO-SUBSTITUTED ISOTHIAZOLES” (Bayer Pharma Aktiengesellschaft, priority 2014, published 2017).
Where two headings read alike, the source gives them in different places.

Assays:
[1] = test system: human cervical tumor cell line HeLa (ATCC CCL-2); test: SAC-Formation - Paclitaxel-Induced Assay; type: cell-based; details: 24 h, HeLa cells, paclitaxel 0.05 μM, test range 0.005 μM-20 μM, read-out: IC50 [mol/l] SAC-Formation - Paclitaxel-Induced Assay
Method in brief: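 HeLa cells incubated overnight at 37° C, then given paclitaxel (0.05 μM final) plus test compound (0.005–20 μM, 0.5% DMSO) together for 24 h at 37° C. Fixed cells stained for phospho-histone H3 Ser10 (mitotic cells) and Hoechst 33342 (cell count); imaging-derived mitotic index fitted by four-parameter Hill equation.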

CDK2/CycE = target: T1, CDK2/CycE (Homo sapiens, UniProt P24941); test: CDK2/CycE kinase assay (TR-FRET); type: biochemical; details: avg, read-out: CDK2 avg (IC50 [mol/l])
T1 construct: GST; purchased ProQinase GmbH (Freiburg, Germany); host or cells: insect cells (Sf9)
Method in brief: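 GST-tagged human CDK2 and CycE from Sf9 cells, preincubated 15 min with compound, then 25 min at 22° C. with 10 μM ATP and 0.75 μM biotinylated Rb-derived peptide (final). Phospho-substrate read by TR-FRET (anti-pRB pSer807/pSer811, Eu anti-mouse IgG, streptavidin-XL665), 665/620 nm ratio, normalised to no-inhibitor and no-enzyme controls.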

IC50 ([1]; Homo sapiens, HeLa)	IC50 (CDK2/CycE)	IC50 [1]	SMILES
51 nM	≥ 20000 nM		Cc1nsc(Nc2cnc(C(F)(F)F)cn2)c1C(=O)Nc1ccc(F)c(OCC2CCCN(CC(F)(F)F)C2)c1 (stereo not shown) [Example 337, N-(4-fluoro-3-{[1-(2,2,2-trifluoroethyl)piperidin-3-yl]methoxy}phenyl)-3-methyl-5-{[5-(trifluoromethyl)pyrazin-2-yl]amino}-1,2-thiazole-4-carboxamide]
440 nM	> 20000 nM		CCN1CCC(COc2ccc(NC(=O)c3c(C)nsc3Nc3cnc(C(F)(F)F)cn3)cn2)C(F)(F)C1 (stereo not shown) [Example 393, N-{6-[(1-ethyl-3,3-difluoropiperidin-4-yl)methoxy]pyridin-3-yl}-3-methyl-5-{[5-(trifluoromethyl)pyrazin-2-yl]amino}-1,2-thiazole-4-carboxamide]
82 nM	> 20000 nM		Cc1nsc(Nc2cnc(C(F)(F)F)cn2)c1C(=O)Nc1ccc(F)c(OC[C@H]2CCN(CC(F)F)C2)c1 [Example 397, N-(3-{[(3S)-1-(2,2-difluoroethyl)pyrrolidin-3-yl]methoxy}-4-fluorophenyl)-3-methyl-5-{[5-(trifluoromethyl)pyrazin-2-yl]amino}-1,2-thiazole-4-carboxamide]
150 nM	> 20000 nM		CCN1CC[C@H](Oc2ccc(NC(=O)c3c(C)nsc3Nc3cnc(C(F)(F)F)cn3)cn2)[C@@H](F)C1 [Example 365, N-(6-{[(3S,4S)-1-ethyl-3-fluoropiperidin-4-yl]oxy}pyridin-3-yl)-3-methyl-5-{[5-(trifluoromethyl)pyrazin-2-yl]amino}-1,2-thiazole-4-carboxamide]
210 nM	≥ 20000 nM		Cc1nsc(Nc2cnc(C(F)(F)F)cn2)c1C(=O)Nc1ccc(OCCN(C)CCC(F)(F)F)nc1 [Example 351, 3-methyl-N-(6-{2-[methyl(3,3,3-trifluoropropyl)amino]ethoxy}pyridin-3-yl)-5-{[5-(trifluoromethyl)pyrazin-2-yl]amino}-1,2-thiazole-4-carboxamide]
110 nM	> 20000 nM		Cc1nsc(Nc2cnc(C(F)(F)F)cn2)c1C(=O)Nc1ccc(F)c(OC[C@@H]2CCCN(CC(F)(F)F)C2)c1 [Example 342, N-(4-fluoro-3-{[(3R)-1-(2,2,2-trifluoroethyl)piperidin-3-yl]methoxy}phenyl)-3-methyl-5-{[5-(trifluoromethyl)pyrazin-2-yl]amino}-1,2-thiazole-4-carboxamide]
330 nM	> 20000 nM		Cc1nsc(Nc2cnc(C(F)(F)F)cn2)c1C(=O)Nc1ccc(N2CCN(CC(F)F)CC2)cn1 [Example 372, N-{5-[4-(2,2-difluoroethyl)piperazin-1-yl]pyridin-2-yl}-3-methyl-5-{[5-(trifluoromethyl)pyrazin-2-yl]amino}-1,2-thiazole-4-carboxamide]
64 nM	≥ 20000 nM		Cc1nsc(Nc2cnc(C(F)(F)F)cn2)c1C(=O)Nc1ccc(OCC2CCN(CCC(F)(F)F)CC2)nc1 [Example 347, 3-methyl-5-{[5-(trifluoromethyl)pyrazin-2-yl]amino}-N-(6-{[1-(3,3,3-trifluoropropyl)piperidin-4-yl]methoxy}pyridin-3-yl)-1,2-thiazole-4-carboxamide]
57 nM	≥ 20000 nM		Cc1nsc(Nc2cnc(C(F)(F)F)cn2)c1C(=O)Nc1ccc(OCC2CCCN(CC(F)F)C2)nc1 (stereo not shown) [Example 327, N-(6-{[1-(2,2-difluoroethyl)piperidin-3-yl]methoxy}pyridin-3-yl)-3-methyl-5-{[5-(trifluoromethyl)pyrazin-2-yl]amino}-1,2-thiazole-4-carboxamide]
130 nM	> 20000 nM		Cc1nsc(Nc2cnc(C(F)(F)F)cn2)c1C(=O)Nc1ccc(O[C@@H]2CCCN(CCC(F)(F)F)C2)nc1 [Example 387, 3-methyl-5-{[5-(trifluoromethyl)pyrazin-2-yl]amino}-N-(6-{[(3R)-1-(3,3,3-trifluoropropyl)piperidin-3-yl]oxy}pyridin-3-yl)-1,2-thiazole-4-carboxamide]
59 nM	> 20000 nM		Cc1nsc(Nc2cnc(C(F)(F)F)cn2)c1C(=O)Nc1ccc(O[C@H]2CCN(CC(F)F)C[C@@H]2F)nc1 [Example 362]
120 nM	≥ 20000 nM		Cc1nsc(Nc2cnc(C(F)(F)F)cn2)c1C(=O)Nc1ccc(OCCCN(C)CC(F)(F)F)nc1 [Example 354, 3-methyl-N-(6-{3-[methyl(2,2,2-trifluoroethyl)amino]propoxy}pyridin-3-yl)-5-{[5-(trifluoromethyl)pyrazin-2-yl]amino}-1,2-thiazole-4-carboxamide]
96 nM	> 20000 nM		Cc1nsc(Nc2cnc(C(F)(F)F)cn2)c1C(=O)Nc1ccc(O[C@@H]2CCN(CC(F)F)C2)nc1 [Example 379, N-(6-{[(3R)-1-(2,2-difluoroethyl)pyrrolidin-3-yl]oxy}pyridin-3-yl)-3-methyl-5-{[5-(trifluoromethyl)pyrazin-2-yl]amino}-1,2-thiazole-4-carboxamide]
75 nM	> 20000 nM		Cc1nsc(Nc2cnc(C(F)(F)F)cn2)c1C(=O)Nc1ccc(N2CCN(CC(F)(F)F)CC2)nc1 [Example 360, 3-methyl-N-{6-[4-(2,2,2-trifluoroethyl)piperazin-1-yl]pyridin-3-yl}-5-{[5-(trifluoromethyl)pyrazin-2-yl]amino}-1,2-thiazole-4-carboxamide]
35 nM	> 20000 nM	27 nM	Cc1nsc(Nc2cnc(C(F)(F)F)cn2)c1C(=O)Nc1ccc(F)c(OC[C@@H]2CCCN(CCC(F)(F)F)C2)c1 [Example 395, N-(4-fluoro-3-{[(3R)-1-(3,3,3-trifluoropropyl)piperidin-3-yl]methoxy}phenyl)-3-methyl-5-{[5-(trifluoromethyl)pyrazin-2-yl]amino}-1,2-thiazole-4-carboxamide]
420 nM	≥ 20000 nM		Cc1nsc(Nc2ccc(C#N)cn2)c1C(=O)Nc1ccc(OC2CCN(CC(F)(F)F)CC2)nc1 [Example 30, 5-[(5-Cyanopyridin-2-yl)amino]-3-methyl-N-(6-{[1-(2,2,2-trifluoroethyl)piperidin-4-yl]oxy}pyridin-3-yl)-1,2-thiazole-4-carboxamide]
44 nM	> 20000 nM		Cc1nsc(Nc2cnc(C(F)(F)F)cn2)c1C(=O)Nc1ccc(OC[C@@H]2CCCN(CC(F)(F)F)C2)nc1 [Example 376, 3-methyl-N-(6-{[(3R)-1-(2,2,2-trifluoroethyl)piperidin-3-yl]methoxy}pyridin-3-yl)-5-{[5-(trifluoromethyl)pyrazin-2-yl]amino}-1,2-thiazole-4-carboxamide]
12 nM	> 20000 nM		Cc1nsc(Nc2cnc(C(F)(F)F)cn2)c1C(=O)Nc1ccc(F)c(OC[C@@H]2CCN(CC(F)(F)F)C2)c1 [Example 339, N-(4-fluoro-3-{[(3R)-1-(2,2,2-trifluoroethyl)pyrrolidin-3-yl]methoxy}phenyl)-3-methyl-5-{[5-(trifluoromethyl)pyrazin-2-yl]amino}-1,2-thiazole-4-carboxamide]
45 nM	> 20000 nM		Cc1nsc(Nc2cnc(C(F)(F)F)cn2)c1C(=O)Nc1ccc(O[C@H]2CCN(CC(F)F)C2)nc1 [Example 382, N-(6-{[(3S)-1-(2,2-difluoroethyl)pyrrolidin-3-yl]oxy}pyridin-3-yl)-3-methyl-5-{[5-(trifluoromethyl)pyrazin-2-yl]amino}-1,2-thiazole-4-carboxamide]
37 nM	≥ 20000 nM		Cc1nsc(Nc2cnc(C(F)(F)F)cn2)c1C(=O)Nc1ccc(OCC2CCCN(CCC(F)(F)F)C2)nc1 (stereo not shown) [Example 328, 3-methyl-5-{[5-(trifluoromethyl)pyrazin-2-yl]amino}-N-(6-{[1-(3,3,3-trifluoropropyl)piperidin-3-yl]methoxy}pyridin-3-yl)-1,2-thiazole-4-carboxamide]
23 nM	≥ 20000 nM		Cc1nsc(Nc2cnc(C(F)(F)F)cn2)c1C(=O)Nc1ccc(OC2CCCN(CC(F)(F)F)C2)nc1 (stereo not shown) [Example 331, 3-methyl-N-(6-{[1-(2,2,2-trifluoroethyl)piperidin-3-yl]oxy}pyridin-3-yl)-5-{[5-(trifluoromethyl)pyrazin-2-yl]amino}-1,2-thiazole-4-carboxamide]
40 nM	> 20000 nM		Cc1nsc(Nc2cnc(C(F)(F)F)cn2)c1C(=O)Nc1ccc(O[C@H]2CCN(CCC(F)(F)F)C[C@@H]2F)nc1 [Example 364, N-(6-{[(3S,4S)-3-fluoro-1-(3,3,3-trifluoropropyl)piperidin-4-yl]oxy}pyridin-3-yl)-3-methyl-5-{[5-(trifluoromethyl)pyrazin-2-yl]amino}-1,2-thiazole-4-carboxamide]
190 nM	≥ 20000 nM		Cc1nsc(Nc2cnc(C(F)(F)F)cn2)c1C(=O)Nc1ccc(OCCCN(C)CCC(F)(F)F)nc1 [Example 355, 3-methyl-N-(6-{3-[methyl(3,3,3-trifluoropropyl)amino]propoxy}pyridin-3-yl)-5-{[5-(trifluoromethyl)pyrazin-2-yl]amino}-1,2-thiazole-4-carboxamide]
88 nM	> 20000 nM		Cc1nsc(Nc2cnc(C(F)(F)F)cn2)c1C(=O)Nc1ccc(OC[C@@H]2CCCN(CCC(F)(F)F)C2)nc1 [Example 377, 3-methyl-5-{[5-(trifluoromethyl)pyrazin-2-yl]amino}-N-(6-{[(3R)-1-(3,3,3-trifluoropropyl)piperidin-3-yl]methoxy}pyridin-3-yl)-1,2-thiazole-4-carboxamide]
